Test results: ChEMBL document CHEMBL1201862, “PubChem BioAssay data set” (2004)
Values belong to the molecule of their own block, whether it stands above or below them. The source made the active and inactive calls.

Assays:
[1] = biological target: Paired box protein Pax-8 (Homo sapiens, UniProt Q06710); test: PAX8 transcriptional activity inhibition in RMG-I – RMG-I cells, luciferase, cherry-pick, dose response (AID 687027); type: functional, cell-based;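 further: luciferase reporter driven by Pax8 target thyroperoxidase promoter measured by SteadyGlo luminescence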
[2] = inhibitors acting on PAX2 in cells – cell-based, plate reader, dry powder samples, selectivity assay for PAX8 inhibitor project, dose response (AID 743048); type: functional;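 further: HEK293 cells carrying a WT1 promoter luciferase reporter driven by expressed Pax2; potency is for inhibition of Pax2 driven reporter signal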
[3] = COV362 cell viability loss – plate reader, dry powder, SA12, cytotoxicity control for PAX8 inhibitor project, dose response (AID 743144); type: functional, cell-based
[4] = toxicity toward immortalized ovarian surface epithelium – cell-based, plate reader, dry powder samples, cytotoxicity control for PAX8 inhibitor project, dose response (AID 743045); type: functional
[5] = OVCAR-3 cell viability loss – plate reader, dry powder samples, PAX8 inhibitor project, dose response (AID 743044); type: functional, cell-based
[6] = PAX5 cellular inhibition readout – cell-based, plate reader, dry powder samples, selectivity assay for PAX8 inhibitor project, dose response (AID 743047); type: functional;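 further: HEK293 cells carrying a Pax5 driven CD19 promoter luciferase reporter; potency of inhibitors that lower reporter luminescence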
[7] = IGROV1 cell killing – plate reader, dry powder samples, PAX8 inhibitor project, dose response (AID 743043); type: functional, cell-based; details: IGROV-1
[8] = OVCAR4 cell viability loss – plate reader, dry powder, SA11, cytotoxicity control for PAX8 inhibitor project, dose response (AID 743150); type: functional, cell-based; details: OVCAR-4
[9] = COV434 cell viability loss – plate reader, dry powder, SA7, cytotoxicity control for PAX8 inhibitor project, dose response (AID 743145); type: functional, cell-based
[10] = OV-90 cell viability loss – plate reader, dry powder, SA8, PAX8 inhibitor project, dose response (AID 743149); type: functional, cell-based
[11] = PAX8-dependent cell viability loss – plate reader, dry powder, dose response (AID 743049); type: functional, cell-based
[12] = biological target: NAD-dependent protein deacylase sirtuin-5, mitochondrial (Homo sapiens, UniProt Q9NXA8); test: sirtuin-5 deacylation blockers, concentration series – biochemical, fluorescence imaging, cherry-pick, set 5, dose response (AID 720591);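 further: desuccinylation of succinyl peptide AMC substrate read as fluorescence after trypsin release; potency of inhibitors that lower fluorescence and may act on trypsin instead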
[13] = biological target: T1, Hexokinase-1 (Homo sapiens, UniProt P19367); test: SAR analysis of small molecule inhibitors of hexokinase domain containing I (HKDC1) in the hexokinase 1 selectivity assay. [Related pubchem assays (depositor defined):AID493160, AID493190]; type: functional
T1 sequence (P19367 whole entry): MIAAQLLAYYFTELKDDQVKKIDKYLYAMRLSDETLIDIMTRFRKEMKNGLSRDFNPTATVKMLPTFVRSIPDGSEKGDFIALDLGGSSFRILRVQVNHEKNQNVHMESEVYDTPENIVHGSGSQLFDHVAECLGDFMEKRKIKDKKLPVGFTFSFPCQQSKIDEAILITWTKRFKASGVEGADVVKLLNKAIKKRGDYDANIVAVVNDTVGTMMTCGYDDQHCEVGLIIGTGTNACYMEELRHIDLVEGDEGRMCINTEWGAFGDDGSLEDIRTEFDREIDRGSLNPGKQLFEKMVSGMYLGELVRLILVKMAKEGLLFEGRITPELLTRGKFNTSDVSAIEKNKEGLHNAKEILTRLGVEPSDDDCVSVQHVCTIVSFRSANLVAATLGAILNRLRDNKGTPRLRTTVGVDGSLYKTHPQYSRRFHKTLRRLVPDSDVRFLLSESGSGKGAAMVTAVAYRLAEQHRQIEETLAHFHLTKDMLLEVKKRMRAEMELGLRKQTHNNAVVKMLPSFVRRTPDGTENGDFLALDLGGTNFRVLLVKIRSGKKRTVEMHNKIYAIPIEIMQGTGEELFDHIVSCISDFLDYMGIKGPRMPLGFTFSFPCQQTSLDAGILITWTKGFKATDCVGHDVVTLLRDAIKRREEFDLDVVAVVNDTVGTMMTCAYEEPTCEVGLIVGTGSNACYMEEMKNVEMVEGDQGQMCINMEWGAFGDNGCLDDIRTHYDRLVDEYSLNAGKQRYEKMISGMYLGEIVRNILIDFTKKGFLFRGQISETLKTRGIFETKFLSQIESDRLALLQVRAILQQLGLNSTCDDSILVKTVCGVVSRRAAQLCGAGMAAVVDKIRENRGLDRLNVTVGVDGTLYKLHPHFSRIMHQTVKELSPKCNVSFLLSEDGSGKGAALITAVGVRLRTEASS

[14] = biological target: T2, Hexokinase HKDC1 (Homo sapiens, UniProt Q2TB90); test: SAR analysis of small molecule inhibitors of hexokinase domain containing I (HKDC1). [Related pubchem assays (depositor defined):AID493160, AID493190]; type: functional
T2 sequence (Q2TB90 whole entry): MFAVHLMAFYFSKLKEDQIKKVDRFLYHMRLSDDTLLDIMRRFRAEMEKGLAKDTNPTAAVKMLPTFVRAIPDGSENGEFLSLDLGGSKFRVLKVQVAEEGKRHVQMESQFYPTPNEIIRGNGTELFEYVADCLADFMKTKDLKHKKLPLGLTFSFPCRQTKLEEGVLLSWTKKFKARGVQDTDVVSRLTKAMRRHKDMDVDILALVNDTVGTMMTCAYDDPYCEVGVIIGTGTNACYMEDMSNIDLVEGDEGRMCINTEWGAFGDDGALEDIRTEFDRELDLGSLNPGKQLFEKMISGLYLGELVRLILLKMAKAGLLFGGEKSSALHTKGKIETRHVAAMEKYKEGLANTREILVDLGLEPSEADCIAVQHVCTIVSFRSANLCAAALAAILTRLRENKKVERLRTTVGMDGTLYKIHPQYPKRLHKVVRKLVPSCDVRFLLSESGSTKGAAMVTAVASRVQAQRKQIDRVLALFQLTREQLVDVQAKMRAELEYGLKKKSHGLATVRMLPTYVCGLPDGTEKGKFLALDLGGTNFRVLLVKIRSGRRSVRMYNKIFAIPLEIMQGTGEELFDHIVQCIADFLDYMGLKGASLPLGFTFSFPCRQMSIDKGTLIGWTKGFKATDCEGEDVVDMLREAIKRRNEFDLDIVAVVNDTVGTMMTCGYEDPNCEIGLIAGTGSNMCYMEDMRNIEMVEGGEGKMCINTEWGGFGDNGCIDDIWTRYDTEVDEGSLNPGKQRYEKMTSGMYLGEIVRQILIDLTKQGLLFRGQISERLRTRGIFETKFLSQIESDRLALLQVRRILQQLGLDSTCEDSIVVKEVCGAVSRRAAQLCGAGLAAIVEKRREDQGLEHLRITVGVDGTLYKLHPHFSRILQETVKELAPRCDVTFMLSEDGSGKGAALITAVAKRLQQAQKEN

[15] = viability of BHK-21 cells – cell-based, secondary screen, cytotoxicity control for flavivirus guanylyltransferase probe project (AID 624078); type: functional
[16] = Late-stage results from the probe development effort to identify antagonists of arginine vasopressin receptor 1a (AVPR1a): fluorescence-based cell-based dose response AVPR1a inhibition assay.; type: functional
[17] = biological target: Vasopressin V1b receptor (Homo sapiens, UniProt P47901); test: Late-stage results from the probe development effort to identify antagonists of arginine vasopressin receptor 1a (AVPR1a): fluorescence-based cell-based dose response AVPR1b inhibition counterscreen assay.; type: functional
[18] = biological target: Vasopressin V2 receptor (Homo sapiens, UniProt P30518); test: Late-stage results from the probe development effort to identify antagonists of arginine vasopressin receptor 1a (AVPR1a): fluorescence-based cell-based dose response AVPR2 inhibition counterscreen assay.; type: functional
[19] = Late-stage results from the probe development effort to identify antagonists of arginine vasopressin receptor 1a (AVPR1a): fluorescence-based cell-based dose response OXTR inhibition counterscreen assay.; type: functional
[20] = biological target: Potassium channel subfamily K member 9 (Homo sapiens, UniProt Q9NPC2); test: KCNK9 flux blockade, concentration-response – cell-based, FluxOR thallium flux, selectivity assay for TASK1 inhibitor project, SAR follow-up (AID 652211); type: functional;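 further: potency is for inhibitors of the channel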
[21] = biological target: Potassium channel subfamily K member 3 (Homo sapiens, UniProt O14649); test: inhibition of human KCNK3 channel flux – CHO cells, FluxOR thallium flux, SAR follow-up (AID 652212); type: functional
[22] = Late stage assay provider results from the probe development effort to identify inhibitors of the Plasmodium falciparum M18 Aspartyl Aminopeptidase (M18AAP): radiolabel-based cell-based dose response assay to identify compounds that inhibit P. falciparum growth in RBCs, Set 2..; type: functional

Paired box protein Pax-8, sequence (Q06710 whole entry): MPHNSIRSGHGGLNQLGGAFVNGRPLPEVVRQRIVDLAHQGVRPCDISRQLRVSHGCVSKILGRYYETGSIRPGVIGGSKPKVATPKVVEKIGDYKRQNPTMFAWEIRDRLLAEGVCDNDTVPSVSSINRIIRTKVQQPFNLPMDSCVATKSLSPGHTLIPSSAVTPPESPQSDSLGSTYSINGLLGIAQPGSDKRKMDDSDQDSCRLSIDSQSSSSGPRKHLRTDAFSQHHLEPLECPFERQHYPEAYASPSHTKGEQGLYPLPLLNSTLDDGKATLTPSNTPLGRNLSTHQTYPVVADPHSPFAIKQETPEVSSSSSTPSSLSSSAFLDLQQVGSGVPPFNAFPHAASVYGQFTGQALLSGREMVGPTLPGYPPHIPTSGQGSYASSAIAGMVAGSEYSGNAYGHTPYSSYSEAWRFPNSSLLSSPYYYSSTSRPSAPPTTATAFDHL
NAD-dependent protein deacylase sirtuin-5, mitochondrial, sequence (Q9NXA8 whole entry, the tested form may be a part): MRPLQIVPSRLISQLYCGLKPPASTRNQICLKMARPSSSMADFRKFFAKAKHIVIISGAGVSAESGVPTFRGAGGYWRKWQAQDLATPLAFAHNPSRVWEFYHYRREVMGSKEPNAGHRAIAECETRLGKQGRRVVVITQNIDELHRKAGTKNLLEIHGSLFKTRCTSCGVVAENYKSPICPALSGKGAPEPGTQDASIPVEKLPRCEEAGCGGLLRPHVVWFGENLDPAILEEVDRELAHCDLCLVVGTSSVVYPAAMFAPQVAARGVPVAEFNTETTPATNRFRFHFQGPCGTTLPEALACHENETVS
Vasopressin V1b receptor, sequence (P47901 whole entry): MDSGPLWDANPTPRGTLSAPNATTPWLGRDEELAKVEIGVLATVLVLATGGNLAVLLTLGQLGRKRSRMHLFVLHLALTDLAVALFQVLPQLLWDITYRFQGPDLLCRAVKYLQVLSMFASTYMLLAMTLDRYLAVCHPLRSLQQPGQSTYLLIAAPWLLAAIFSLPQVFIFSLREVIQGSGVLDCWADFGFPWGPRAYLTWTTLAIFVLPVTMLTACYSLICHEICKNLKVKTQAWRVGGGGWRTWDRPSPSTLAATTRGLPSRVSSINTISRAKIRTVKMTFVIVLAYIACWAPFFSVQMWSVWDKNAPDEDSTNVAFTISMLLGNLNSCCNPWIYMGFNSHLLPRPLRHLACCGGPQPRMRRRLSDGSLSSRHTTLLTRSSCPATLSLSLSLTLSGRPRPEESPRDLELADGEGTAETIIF
Potassium channel subfamily K member 3, sequence (O14649 whole entry): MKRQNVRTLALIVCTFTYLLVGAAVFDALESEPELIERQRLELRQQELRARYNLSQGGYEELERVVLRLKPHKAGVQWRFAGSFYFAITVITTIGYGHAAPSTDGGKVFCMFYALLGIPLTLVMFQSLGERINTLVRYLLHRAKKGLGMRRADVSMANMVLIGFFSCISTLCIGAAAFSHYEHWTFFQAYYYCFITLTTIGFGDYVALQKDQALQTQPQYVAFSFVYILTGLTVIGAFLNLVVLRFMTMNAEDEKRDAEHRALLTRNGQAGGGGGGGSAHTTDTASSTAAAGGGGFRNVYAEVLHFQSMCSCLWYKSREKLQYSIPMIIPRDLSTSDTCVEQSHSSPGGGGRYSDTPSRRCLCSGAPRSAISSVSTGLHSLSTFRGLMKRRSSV
Potassium channel subfamily K member 9, sequence (Q9NPC2 whole entry): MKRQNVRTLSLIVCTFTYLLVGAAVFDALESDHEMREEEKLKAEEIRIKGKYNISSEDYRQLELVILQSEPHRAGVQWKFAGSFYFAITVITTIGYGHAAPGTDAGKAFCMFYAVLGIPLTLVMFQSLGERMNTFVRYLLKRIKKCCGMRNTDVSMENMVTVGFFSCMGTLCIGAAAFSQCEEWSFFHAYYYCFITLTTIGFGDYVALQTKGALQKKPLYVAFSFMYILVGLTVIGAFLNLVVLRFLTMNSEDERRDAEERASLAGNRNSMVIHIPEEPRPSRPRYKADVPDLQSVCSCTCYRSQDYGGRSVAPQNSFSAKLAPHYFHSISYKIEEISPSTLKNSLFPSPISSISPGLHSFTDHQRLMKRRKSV
Vasopressin V2 receptor, sequence (P30518 whole entry): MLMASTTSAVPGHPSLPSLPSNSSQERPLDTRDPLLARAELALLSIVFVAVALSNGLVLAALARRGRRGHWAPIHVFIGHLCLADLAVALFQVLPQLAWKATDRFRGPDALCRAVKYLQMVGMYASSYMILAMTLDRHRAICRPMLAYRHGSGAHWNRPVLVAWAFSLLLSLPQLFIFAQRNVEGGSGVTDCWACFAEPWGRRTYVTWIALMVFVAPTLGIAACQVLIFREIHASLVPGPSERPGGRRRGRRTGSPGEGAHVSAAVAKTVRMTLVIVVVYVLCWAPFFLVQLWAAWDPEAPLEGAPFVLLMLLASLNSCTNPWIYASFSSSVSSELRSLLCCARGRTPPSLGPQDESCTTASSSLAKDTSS

Structure (SMILES): N#C[C@H]1[C@@H](c2ccc(C#Cc3ccc(F)cc3)cc2)[C@H](CO)N1C(=O)Nc1ccc(F)cc1
AC50 [1]: 12.3 µM (active) | AC50 [2]: 14.1 µM (active) | AC50 [3]: 19.6 µM (active) | AC50 [4]: 44.7 µM (active) | AC50 [5]: 23.5 µM (active) | AC50 [6]: 14 µM (active) | AC50 [7]: 30.1 µM (active) | AC50 [8]: 19.2 µM (active) | AC50 [9]: 20.5 µM (active) | AC50 [10]: 21.1 µM (active) | AC50 [11]: 13.2 µM (active)

Structure (SMILES): O=C(C1CCN(c2ccccn2)CC1)N(CC1CC1)c1ccc(Cl)cc1
IC50 [16]: 0.0288 µM (active) | IC50 [17]: 18.9 µM (inactive) | IC50 [18]: 28.3 µM (inactive) | IC50 [19]: 9.6 µM (active)

Structure (SMILES): Cc1cccc(C(=O)Nc2cccc(NC(=O)c3ccccc3OCC(C)C)c2)c1
IC50 [20]: 3.39 µM (active) | IC50 [21]: 0.206 µM (active)

Structure (SMILES): Oc1ccc(CCN2CCc3ccccc3C2)cc1O
IC50 [22]: 7.9 µM (active)

The next lines start with results.

AC50 [12]: 5.41 µM (active)
Structure (SMILES): O=C(O)CCNc1nc(-c2ccccc2)nc2ccccc12

IC50 [13]: 50.6 µM (inactive) | IC50 [14]: 5.44 µM (active)
Structure (SMILES): Cc1ccc(S(=O)(=O)Nc2cc(SCC(=O)O)c(O)c3ccccc23)cc1
CC50 [15]: 9.31 µM (active)
